Experiments:
[1] = tested on: neurons throughout the brain; experiment: Simultaneous recording from four Neuropixels probes with i.p. drug delivery
Description: Mice were anesthetized with isoflurane, carefully leveled in a stereotaxic apparatus and their scalp and periosteum were removed. A 3% hydrogen peroxide in saline solution was used to clean the surface of the skull. A custom stainless steel headbar was leveled on the skull and attached using clear dental cement. After the cement had dried, targeted probe entry sites were stereotaxically marked on the cement layer with a permanent marker (Day 1: “mPFC”, 2.3AP, 0.6 ML; “somatosensory”, −0.7AP, −4.0 ML; “retrosplenial”, −2AP, −1 ML; “subiculum”, −3.5AP, 2.14 ML; Day 2: “OFC”: 2.5AP, 1.5 ML; “mPFC”: 2.3AP, −0.6 ML; “retrosplenial”, −2AP, 1 ML; “thalamus”, −1.5AP, −1.7 ML). […] A 2 mm long insulated platinum-iridium wire was implanted centrally over the cerebellum, with the last several hundred microns bared to serve as an electrical reference.
Mice were acclimated to head fixation and the recording rig over several days before recording. Several hours before recording, mice were anesthetized for approximately 30 minutes each while small 1 mm craniotomies were made over four pre-marked areas. Craniotomies were kept clean of bone fragments and made such that bleeding was minimized. The skull was covered with a pool of saline and with Quik-Cast to protect and keep moist craniotomies before recording. Mice recovered in their homecages before recording. Immediately prior to recording set up, mice were very briefly anesthetized with isoflurane and implanted with an IV catheter system (BD Saf-T-Intima Closed IV Catheter System: 22G ×¾″, containing an integrated Y adaptor and safety lock) to their intraperitoneal cavity and affixed with glue. […] While still anesthetized, mice were headfixed and tubing was secured stably to a custom mouse holder by tape. Quik-Cast was removed from the skull, and craniotomies were briefly cleaned before being submerged in a pool of saline. Four Neuropixels 1.0 probes^43,44, were grounded together with the mouse reference electrode, coated with red fixable dye (CM-Dil, ThermoFisher), positioned over each craniotomy, and carefully inserted at approximately 15 degrees from the vertical axis to depths of 4-5 mm at a rate of approximately 3 um/s. Following the completion of all insertions, the probes were allowed to rest for at least 10 minutes before the recording began. 30 kHz data was acquired from the four probes simultaneously using the Neuropixels control system (as described in the User Manual) and SpikeGLX software (billkarsh.github.io/SpikeGLX/). The four acquisitions were synchronized using a common squarewave signal recorded for all probes and aligned to the nearest pulse edge. Following the beginning of recording, a 20-minute baseline period of activity was collected. […]

humans = settings: human; cited from earlier work
mouse = settings: cited from earlier work
[2] = tested on: retrosplenial cortex (RSP); experiment: Widefield (pan-cortical) imaging of cortical activity in GCaMP6s mice
Description: (2 mg/kg), lidocaine (topical), LSD ((+)-Lysergic acid diethylamide (+)-tartrate (2:1), 0.3 mg/kg), and diazepam (2 mg/kg). […] For anti-depressant effects, human doses are typically 0.3-1 mg/kg, and in mouse 3-10 mg/kg.
As described^8, mice were anesthetized with isoflurane, the scalp was removed, the skull cleaned and dried, and a custom head-plate was cemented to contacts over the cerebellum and in front of the olfactory bulb. The skull was then covered in a thin layer of cyanoacrylate glue (Apollo 2000, Cyberbond), clear dental acrylic (Ortho-Jet, Lang Dental), and clear nail polish (Electron Microscopy Services). […] (0.1 mg/kg) was injected subcutaneously for pain management. […] Imaging was performed on a custom-built fluorescence microscope designed for high light collection efficiency and large field of view. […] Alternating 410 nm and 488 nm illumination for non-Ca^2+ dependent artifact removal was controlled using a microcontroller (Arduino) slaved to the frame output trigger of the camera.
Analysis was performed using custom MATLAB (MathWorks) scripts. Widefield imaging videos were registered to a 2D top-projection atlas generated from the annotated Allen Brain Atlas volume, version CCFv2, in MATLAB (MathWorks), using an affine transformation computed from four manually selected control points. Each video was DF/F normalized, using the median for each pixel over the entire time series as F. The 410 nm channel was then temporally smoothed using a moving average (width=400 ms). The smoothed 410 nm DF/F signal for each pixel was regressed onto the 488 nm DF/F signal for the corresponding pixel, and the regression coefficients were used to scale the 410 nm channel to the 488 nm channel. This scaled 410 nm DF/F signal was then subtracted from the 488 nm DF/F signal to produce a normalized signal for each pixel. For quantification, activity traces were extracted from points centered in five cortical regions (visual, somatosensory, parietal, motor, retrosplenial) on the left hemisphere of the brain. The video data was Gaussian smoothed spatially (radius=2 pixels). Similarly, for fiber photometry recordings, the 410 nm signal was regressed onto the 488 nm signal, the 410 nm signal was scaled by the regression coefficients, and then subtracted from the 488 nm signal.
Each trace (corresponding to either a fiber photometry signal, a cellular two-photon signal, a widefield regional centroid, a widefield pixel, an sEEG trace, or a smoothed spike rate Neuropixels trace) was z-scored, and the power spectral density (PSD) was then estimated using Welch's method (pwelch( ) in Matlab), with a window size of 10*fs (15*fs for human sEEG) where fs is the sampling rate of the signal. The average band power within a specified band (i.e. 1-3 Hz) was then computed by integrating the PSD estimate (bandpower in Matlab). For displaying the traces of individual cells, traces were each zscored by subtracting the mean value of the trace (across the whole recorded time window) and dividing by the standard deviation of the trace. Unless otherwise indicated, the PSD was computed across the time window from minutes 10 to 11 post-injection.

mice [3] = experiment: Open field test; format: in vivo, mouse; settings: 5 min; vs saline; doses of b234
Excerpt: Open Field Test: Mice were placed in an evenly illuminated 50 cm×50 cm open field test box. Mouse position was captured using a webcam and Viewer software (Biobserve).

mice [4] = experiment: Righting reflex assay; format: in vivo, mouse
Excerpt: Righting Reflex Assay: Mice were held at the neck and tail, rotated to supine position on a flat surface, and quickly released. Time to right was quantified as moment of release to moment when all 4 legs touched the ground. A five second threshold was used to classify righting success (less than 5 seconds) from failure (more than 5 seconds). […] Illumination began for 30 seconds, and then the mouse was swiftly inverted onto the flat surface.

deep RSP neurons = experiment: 32-channel two-shank silicon probe recording in deep RSP; format: in vivo, mouse; settings: 50 mg/kg ketamine
Description: Mice were anesthetized with isoflurane, a small craniotomy (˜2 mm diameter) was performed above retrosplenial cortex, and a custom head-plate implanted. The dura was gently removed, and then covered with Kwik-Cast Sealant (World Precision Instruments). A skull screw was implanted and secured with cement in the right frontal skull bone. Mice were given 1-2 hours to recover. […] The deepest tip of the electrode was 800-1000 μm from the brain surface for all recordings.
Extracellular electrophysiological data were recorded using 32 channel acute silicon probes (ASSY-37 P-1, Cambridge Neurotech) acquired at 30 kHz. Following common average referencing, well-isolated single units were identified using KiloSort and Phy. Data were analyzed using custom Matlab scripts. Instantaneous firing rate was computed using 1 ms bins. We used a Hidden Markov Model with two states to label ON and OFF states. ON states were considered to represent bursts, and OFF states were inter-burst intervals. We fit the emission and transition parameters of the model using the Baum-Welch algorithm (Matlab hmmtrain with a convergence threshold of 1 e-6 and initial guesses of transition matrix: [0.95, 0.05; 0.05, 0.95] and emission: [0.5, 0.5; […]]), and then estimated the state assignment at each time point using the Viterbi algorithm (Matlab hmmviterbi). Various initial guesses were tested, and they yielded the same or similar model fit. For population analyses, a bin size of 2 was used. In FIG. 10, we are looking at the number of spikes in each burst, which can vary depending on the neuron being recorded, so we included every burst for every neuron. To quantify the consistency of the sequential onset of activation across bursts, we ranked each unit by its onset time for each burst. We then ordered the units according to their median rank across bursts. For each burst, we fit a linear model between the ranking in that burst and the median rank. The distribution of correlation coefficients was then plotted across bursts for each mouse and treatment condition.

mice [5] = experiment: Tail suspension test; format: in vivo, mouse
Description: Tail Suspension Test: Mouse activity was recorded using a 60 Hz web camera. Struggling activity was quantified for minutes 2-10. […] Illumination began 30 seconds before tails were secured with tape and suspended from the beam. Mice were excluded if they climbed on their own tails.

For `CNC1(c2ccccc2Cl)CCCCC1=O` (centres unmarked) [ketamine], which “Correlations of brain regions with RSP” value ([1]; 8-12 min after ketamine injection (50 mg/kg i.p.)) is on record?
Its value is “correlations with RSP were reduced”.

What about the “Coupling of anteromedial thalamic neurons with RSP” value ([1]; subanesthetic ketamine) of the same compound?
The value was “oscillate out-of-phase with RSP”.

What about the “Coupling of laterodorsal and anteroventral thalamus” value ([1]; subanesthetic ketamine) of the same compound?
Its value is “became more-strongly correlated to each other and RSP”.

And the “Rhythmicity of subcortical regions” value ([1]; subanesthetic ketamine)?
The value was “specific subcortical regions (inaccessible to cortical imaging) exhibiting increased rhythmicity”.

And the “Dose at which potent dissociation is consistently reported” value (humans)?
The value was 2 to 3 mg/kg.

What about the “Doses for anti-depressant effects” value (humans) of the same compound?
Its value is 0.3 to 1 mg/kg.

What about the “Doses for anti-depressant effects” value (mouse) of the same compound?
Its value is 3 to 10 mg/kg.

What about the “Time over which ketamine-induced oscillation decayed” value ([2]; Supplementary Note 2) of the same compound?
Its value is roughly 15 min.

And the “Time over which ketamine-induced oscillation emerged” value ([2]; Supplementary Note 2)?
The value was 2 min.

What about the “Ketamine-induced 1-3 Hz movements” value ([2]; ketamine 50 mg/kg i.p.) of the same compound?
The value was “no ketamine-induced 1-3 Hz movements were observed”.

And the “Time for rhythm to emerge” value ([2]; ketamine 50 mg/kg i.p.)?
The value was no more than 120 s.

What about the “Time for rhythm to return to baseline” value ([2]; ketamine 50 mg/kg i.p.) of the same compound?
The value was roughly 45 min.

What about the “Magnitude of rhythm on repeated days” value ([2]; ketamine, five consecutive days) of the same compound?
Its value is “exhibited similar magnitude across five consecutive days”.

And the “RSP activity-correlations with other dorsal-cortical regions” value ([2]; subanesthetic ketamine)?
The value was “reduced RSP activity-correlations with all other dorsal-cortical regions”.

And the “Spread of the ketamine-rhythm” value ([2]; to other layers or nearby cortical regions)?
Its value is “did not spread beyond layer 5 neurons in retrosplenial cortex”.

And the “Cortical activity pattern: 1-3 Hz oscillation localized to retrosplenial cortex (RSP)” value ([2]; widefield imaging, i.p., ketamine 50 mg/kg subanesthetic dose, other drugs at doses of b234)?
The value was “a 1-3 Hz oscillation emerged in retrosplenial cortex (RSP), but not in any other cortical region”.

And the Open-field locomotion velocity (mice [3])?
The Open-field locomotion velocity was “decreased velocity”.

And the “Righting-reflex test for consciousness” value (mice [4]; anesthetic ketamine 200 mg/kg)?
Its value is “abolished by anesthetic ketamine”.

What about the “Righting-reflex test for consciousness” value (mice [4]; subanesthetic ketamine doses) of the same compound?
The value was “preserved in all animals”.

What about the “Righting of postural inversion” value (mice [4]; wild-type and knockout mice, ketamine) of the same compound?
The value was “all mice successfully-righted postural inversion”.

And the “Duration of silent states between bursts” value (deep RSP neurons)?
Its value is roughly 250 ms.

And the “Duration of synchronous bursts of deep RSP neurons” value (deep RSP neurons)?
The value was roughly 250 ms.

What about the “Participation of units in burst events” value (deep RSP neurons) of the same compound?
Its value is “nearly all identified units participated in every burst event”.

And the “Spikes per burst of individual units” value (deep RSP neurons)?
The value was 5-10 spikes/burst.

And the “Tail suspension-escape behavior vs. wild-type” value (mice [5]; both channel-knockouts (HCN1, GRIN1), ketamine)?
The value was “modestly-recovered tail suspension-escape behavior”.

What about the Tail-suspension escape responses (mice [5]; ketamine >=25 mg/kg) of the same compound?
The Tail-suspension escape responses was “suppressed tail-suspension escape responses”.
